Reference: US7700624B2, “3-aminocyclopentanecrboxamides as modulators of chemokine receptors” (Incyte Corporation, priority 2005, dated 2010)

These compounds were tested against T1, CCR2 (Homo sapiens, UniProt P41597) (assay: CCR2 binding assay: 125I-labeled MCP-1 binding to human PBMCs). Conditions: inhibition of specific binding of 0.1 to 0.2 nM 125I-labeled MCP-1 to human PBMCs, 30 min at room temperature.
T1 construct: Peripheral Blood Mononuclear Cells (PBMCs) prepared from normal human whole blood via density gradient centrifugation; endogenous in cells; host or cells: human PBMCs from normal whole blood
T1 sequence (P41597 1-360 isoform P41597-2): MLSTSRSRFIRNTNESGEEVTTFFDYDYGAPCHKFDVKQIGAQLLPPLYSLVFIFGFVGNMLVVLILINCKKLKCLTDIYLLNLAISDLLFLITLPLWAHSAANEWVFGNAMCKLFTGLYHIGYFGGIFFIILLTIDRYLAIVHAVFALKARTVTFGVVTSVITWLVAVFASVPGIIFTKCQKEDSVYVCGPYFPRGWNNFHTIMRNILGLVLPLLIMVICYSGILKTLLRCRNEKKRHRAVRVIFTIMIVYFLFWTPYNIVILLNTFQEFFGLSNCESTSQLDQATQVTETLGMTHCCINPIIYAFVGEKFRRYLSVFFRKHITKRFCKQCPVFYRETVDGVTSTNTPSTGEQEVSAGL
Text: The CCR2 antagonist activity of compounds of the invention can be reported as the inhibitor concentration required for 50% inhibition (IC50 values) of specific binding in receptor binding assays using ^125I-labeled MCP-1, as ligand, and Peripheral Blood Mononuclear Cells (PBMCs) prepared from normal human whole blood via density gradient centrifugation. Specific binding is preferably defined as the total binding (e.g., total cpm on filters) minus the non-specific binding. Non-specific binding is defined as the amount of cpm still detected in the presence of excess unlabeled competitor (e.g., MCP-1).
Human PBMCs are used to test compounds of the invention in a binding assay. For example, 200,000 to 500,000 cells are incubated with 0.1 to 0.2 nM ^125I-labeled MCP-1, with or without unlabeled competitor (10 nM MCP-1) or various concentrations of compounds to be tested. ^125I-labeled MCP-1, are prepared by suitable methods or purchased from commercial vendors (Perkin Elmer, Boston Mass.). The binding reactions are performed in 50 to 250 μL of a binding buffer consisting of […] pH 7.2, and 0.1% BSA (bovine serum albumin), for 30 min at room temperature. The binding reactions are terminated by harvesting the membranes by rapid filtration through glass fiber filters (Perkin Elmer) which is presoaked in 0.3% polyethyleneimine or Phosphate Buffered Saline (PBS). The filters were rinsed with approximately 600 μL of binding buffer containing 0.5 M NaCl or PBS, then dried, and the amount of bound radioactivity is determined by counting on a Gamma Counter (Perkin Elmer).

Compound | IC50 [nM]
CC(C)[C@]1(C(=O)N2CCN(c3cc(C(F)(F)F)ccn3)CC2)CC[C@@H](NC2CCCN(c3ncccn3)C2)C1 (mixture of isomers) [Example 11, N-[(1R,3S)-3-isopropyl-3-({4-[4-(trifluoromethyl)pyridin-2-yl]piperazin-1-yl}carbonyl)cyclopentyl]-1-pyrimidin-2-ylpiperidin-3-amine] | 420
CC#CCN1CCC(N[C@@H]2CC[C@@](C(=O)N3CCN(c4cc(C(F)(F)F)ccn4)CC3)(C(C)C)C2)CCC1=O (mixture of isomers) [Example 12, 1-but-2-yn-1-yl-5-{[(1R,3S)-3-isopropyl-3-({4-[4-(trifluoromethyl)pyridin-2-yl]piperazin-1-yl}carbonyl)cyclopentyl]amino}azepan-2-one] | 660
CC(CCn1cccn1)N[C@@H]1CC[C@@](C(=O)N2CCN(c3cc(C(F)(F)F)ccn3)CC2)(C(C)C)C1 (mixture of isomers) [Example 22, (1R,3S)-3-isopropyl-N-[1-methyl-3-(1H-pyrazol-1-yl)propyl]-3-({4-[4-(trifluoromethyl)pyridin-2-yl]piperazin-1-yl}carbonyl)cyclopentanamine] | 504
CC(C)[C@]1(C(=O)N2CCN(c3cc(C(F)(F)F)ccn3)CC2)CC[C@@H](NCc2ccc(Cl)s2)C1 [Example 5, (1R,3S)-N-[(5-chloro-2-thienyl)methyl]-3-isopropyl-3-({4-[4-(trifluoromethyl)pyridin-2-yl]piperazin-1-yl}carbonyl)cyclopentanamine] | 616
CCn1cc(CN[C@@H]2CC[C@@](C(=O)N3CCN(c4cc(C(F)(F)F)ccn4)CC3)(C(C)C)C2)cn1 [Example 7, (1R,3S)-N-[(1-ethyl-1H-pyrazol-4-yl)methyl]-3-isopropyl-3-({4-[4-(trifluoromethyl)pyridin-2-yl]piperazin-1-yl}carbonyl)cyclopentanamine] | 617
CC(C)[C@]1(C(=O)N2CCN(c3cc(C(F)(F)F)ccn3)CC2)CC[C@@H](NCc2cnc3c(c2)NC(=O)CO3)C1 [Example 9, 7-({[(1R,3S)-3-isopropyl-3-({4-[4-(trifluoromethyl)pyridin-2-yl]piperazin-1-yl}carbonyl)cyclopentyl]amino}methyl)-1H-pyrido[23-b][14]oxazin-2(3H)-one] | 338

These reach a lower IC50. Values come first.

IC50 [nM] | Compound
157 | CC(C)[C@]1(C(=O)N2CCN(c3cc(C(F)(F)F)ccn3)CC2)CC[C@@H](NC2CCOC2)C1 (mixture of isomers) [Example 23, N-[(1R-3S)-3-isopropyl-3-({4-[4-(trifluoromethyl)pyridin-2-yl]piperazin-1-yl}carbonyl)cyclopentyl]tetrahydrofuran-3-amine]
138 | CC(C)[C@]1(C(=O)N2CCN(c3cc(C(F)(F)F)ccn3)CC2)CC[C@@H](NC2CCc3ccccc3C2)C1 (mixture of isomers) [Example 19, N-[(1R,3S)-3-isopropyl-3-({4-[4-(trifluoromethyl)pyridin-2-yl]piperazin-1-yl}carbonyl)cyclopentyl]-1234-tetrahydronaphthalen-2-amine]
51.7 | CC(C)[C@]1(C(=O)N2CCN(c3cc(C(F)(F)F)ccn3)CC2)CC[C@@H](NC2CCc3cc(F)cc(F)c3C2)C1 (mixture of isomers) [Example 18, 6,8-difluoro-N-[(1R,3S)-3-isopropyl-3-({4-[4-(trifluoromethyl)pyridin-2-yl]piperazin-1-yl}carbonyl)cyclopentyl]-1234-tetrahydronaphthalen-2-amine]
19.8 | CC(C)[C@]1(C(=O)N2CCN(c3cc(C(F)(F)F)ccn3)CC2)CC[C@@H](NC2CCC(O)(c3ccc(-c4ncccn4)cn3)CC2)C1 (stereo partly shown) [Example 1, 4-{[(1R3S)-3-isopropyl-3-({4-[4-(trifluoromethyl)pyridin-2-yl]piperazin-1-yl}carbonyl)cyclopentyl]amino}-1-(5-pyrimidin-2-ylpyridin-2-yl)cyclohexanol]
